Results from patent publication US20100041751A1, “Method to Reduce Oxidative Damage and Improve Mitochondrial Efficiency” (ACCERA, INC., priority 2005, published 2010).
“Also recorded” adds a separate entry of the source. Read-outs that look alike come from different tables or passages of the source.

Assays:
[1] = cited from earlier work; for amount that will dissolve in water: in 1 liter of water at 20° C.
[2] = test system: brain mitochondria; experiment: Respiration assays on brain mitochondria isolated from biopsies of MCT-fed aged beagle dogs; assay type: in vivo; details: for respiratory control ratio (RCR), coupling of respiration with ATP production: state III / state IV respiration, treatment vs control
Experimental: On the day of biopsy, the treatment group was administered 2 g/kg of MCTs and the control group was administered an isocaloric solution of sucrose by an oral-gastric tube. Approximately two hours after dosing, the animals were anaesthetized and biopsies were taken from the frontal and parietal lobes. Immediately after removing the biopsy tissue, the animals were euthanized with an injectable euthanizing agent.
Using the biopsied material, brain mitochondria were isolated and the following parameters were assayed in real-time:
Mitochondrial Assays. Mitochondria were isolated using differential centrifugation and released from synaptosomes using a nitrogen cell disrupter (1000 psi for 5 minutes).
The respiration assays were conducted using standard polarography in a sealed, thermostated, stirred chamber containing a Clark-type electrode, which measures oxygen within the chamber. The system was calibrated with oxygen-saturated water, to standardize the quantification of oxygen consumption. The assays were conducted at 37° C.
Once the mitochondria were inserted into the Oxytherm, complex I driven respiration (state II respiration) was measured by adding pyruvate and malate (2.5 and 5 mM). Subsequently, 150 μM ADP was added to induce state III respiration, which measured the rate of active respiration. Oligomycin was added to inhibit ATP synthase and put the mitochondria into state IV respiration. To assess UCP activity, free fatty acids were added. FCCP then was added to completely uncouple the mitochondria by depolarizing the membrane potential, which caused maximum electron transport activity and maximum oxygen consumption. Finally, rotenone was added to inhibit complex I electron transport and succinate was added to measure maximum complex II-driven electron transport and oxygen consumption (complex II-driven respiration). The respiratory control ratio (RCR) was tabulated by dividing state III respiration rates by state IV respiration rates.
The respiration rates that were tabulated on-site were analyzed using repeated-measures ANOVAs. For each measure, brain region (frontal vs. parietal) was the within-subject variable and group (control vs. MCT) was the between-subject variable.

[3] = Serum beta-hydroxybutyrate (BHB) levels in aged beagle dogs fed MCTs; assay type: in vivo
Experimental: Reducing oxidative damage and improving mitochondrial efficiency. Two groups of aged beagle dogs were tested for the effects of feeding MCT on oxidative damage and mitochondrial efficiency. The first group was maintained on MCTs (2 g/kg/day) and the second group on placebo control over a 2-month period. Blood samples were taken over 5 time points to monitor levels of the ketone body, beta-hydroxybutyrate (BHB). After two months of treatment, the dogs were anaesthetized and brain biopsies were collected for mitochondrial analysis. The animals were then euthanized and brain tissue was harvested for further analysis of mitochondrial function and protein levels.
The eight subjects (8-11 years) were divided into two equal sized groups, matched for age and sex. The first group was administered 2 g/kg/day of MCTs, which was added to their maintenance diet, and the other received only the maintenance diet. The test substance was manually added to the dog's normal chow and introduced over three days, such that one-third of the maximum dose was administered on the first day, two-thirds on the second day and the full dose on the third day. The subjects were maintained on the test substance over a two-month period. Blood samples for BHB analysis were taken on: Baseline (Day 0), Day 4, Day 14, Day 28, Biopsy/Euthanasia (Day 56 or 57).
Biopsy procedure. Approximately 30 minutes prior to surgery, a blood sample was taken for BHB analysis and then the animals were pre-medicated with acepromazine. Animals were induced using isoflurane (inhaled) via a facemask. The animal then were intubated and maintained in a deep plane of anaesthesia using isoflurane. […]
Serum BHB levels were assessed at five different time-points: (1) prior to treatment onset (T0), (2) after 4 days of treatment (T1), (3) after 14 days of treatment (T2), (4) after 28 days of treatment (T3), and (5) on the biopsy date (T4). The levels were analyzed using a repeated-measures ANOVA with time-point (T0 vs. T1 vs. T2 vs. T3 vs. T4) as a within-subject variable and group (control vs. MCT) as a between-subject variable.

[4] = test system: MPTP treated mice; experiment: MPTP mouse model of Parkinson's disease; assay type: in vivo, C57BL mice
Experimental: 8- to 10-week-old male C57BL mice will be divided into four groups: control, MPTP treated plus dextrose, and MPTP treated plus MCT. In dextrose treated pups, 0.5 g/kg of dextrose will be administered by oral gavage 2 to 4 hours before MPTP treatment. In MCT treated pups, 0.5 g/kg of MCTs will be administered by oral gavage 2 to 4 hours before MPTP treatment. Each mouse will then be randomly assigned to receive four intraperitoneal injections of either MPTP (18 mg/kg of free base in saline) or saline at 2-hour intervals. Mice will subsequently be tested for motor performance on a rotarod. The rotarod will consist of four rotating rods of 3 cm diameter in separated compartments. Seven days after MPTP or saline injections the mice will be first pretrained three times (1 hour apart) using an accelerating mode. After the training sessions, the time on the rod will be recorded for successive rotational speeds, and the overall rod performance (ORP) for each mouse calculated.
Seven days after the last MPTP injection, mice will be killed and their brain tissue processed for immunohistochemical studies to examine levels of oxidative stress and effects of MPTP treatment. Cell fractions from the biopsied tissue will be frozen and analyzed for oxidative damage using markers of peroxynitrite, lipid peroxidation and 3-nitrotyrosine. […] In addition mitochondria will be isolated from each group and examined for mitochondrial efficiency.

[5] = test system: brain tissue fractions (mitochondrial, P1, cytosolic); experiment: Markers of oxidative damage in brain fractions of MCT-fed aged beagle dogs; assay type: in vivo; details: MCT vs control
Experimental: The remaining mitochondria were stored in 10% DMSO at −80° C. and assayed for UCP isoforms by western blot and quantification of oxidative damage in the mitochondrial, P1 and cytosolic fractions. Mitochondria from the biopsied tissue were frozen and analyzed for oxidative damage using markers of peroxynitrite, lipid peroxidation and 3-nitrotyrosine. Markers of Oxidative Damage. The markers of oxidative damage were analyzed using a repeated-measures ANOVA with region (frontal vs. parietal) and fraction (mitochondrial vs. P1 vs. cytosolic) as the within-subject variables and group (control vs. MCT) as the between-subject variable.

For `CCCCCC(=O)O` [Caproic, caproic acid], the Solubility [1] is listed as 9.7 grams of acid per liter and the “amount that will dissolve in water” value [1] is listed as 9.7 grams.

In the case of `CCCCCCCCCCCC(=O)O` [Lauric], the Solubility ([1]; water at 20° C.) is given as 0.055 grams of acid per liter.

For `CCCCCCCC(=O)OCC(COC(=O)CCCCCCC)OC(=O)CCCCCCC` [MCTs, tri-C8:0 medium chain triglycerides], the “State III respiration” value ([2]; parietal and frontal cortices vs control, group effect p=0.008) was “more oxygen consumption per minute than the control group”, the “State IV respiration” value ([2]; parietal and frontal cortices vs control, marginally significant p=0.067) was “slightly more oxygen consumption per minute than the control group” and the “Uncoupling Protein (UCP) activity” value ([2]; parietal and frontal cortices vs control, marginally significant p=0.086) was “consumed more oxygen per minute than the control animals”. The “improvement of mitochondrial function by brain region” value ([2]; parietal cortex vs frontal cortex) was “more effective at improving mitochondrial function in the parietal cortex than the frontal cortex”, the “State II respiration” value ([2]; parietal cortex, oxygen consumption per minute per mg of tissue vs control, p=0.010) was “significantly less oxygen consumption” and the “respiratory control ratio (RCR), coupling of respiration with ATP production” value [2] was “better coupling of respiration with ATP formation”. The “respiratory control ratio (RCR), coupling of respiration with ATP production” value ([2]; listed as MCT) was “better coupled to ATP production”, the “Complex I-driven respiration (maximum electron transport capacity)” value ([2]; vs control, group effect p=0.002) was “larger maximum electron transport activity than the control group” and the “Complex II-driven respiration” value ([2]; vs control, region x group interaction p=0.047, listed as MCT) was “consumed more oxygen per minute than the control in the parietal cortex; also recorded: no difference”. The “levels of serum BHB” value ([3]; aged beagle dogs, MCTs 2 g/kg/day for 2 months vs control) was “increased levels of serum BHB”, the “Serum BHB levels at T4” value ([3]; biopsy date (Day 56 or 57), MCT vs control, p=0.012) was “significantly higher” and the “Serum BHB levels at T3” value ([3]; day 28 of treatment, MCT vs control, p=0.041) was “significantly higher”. The “motor performance on rotarod” value ([4]; 0.5 g/kg MCTs oral gavage 2 to 4 hours before MPTP) was “lessen the decline in motor performance”, the “signs of oxidative damage” value ([4]; brain tissue seven days after last MPTP injection) was “fewer signs of oxidative damage” and the mitochondrial efficiency ([4]; isolated mitochondria) was “improved mitochondrial efficiency”. For the same molecule, the “Lipid oxidation, effect of group” value ([5]; frontal and parietal, mitochondrial, P1 and cytosolic fractions) was “no additional significant or marginally significant effects” and the “signs of oxidative damage” value ([5]; peroxynitrite (protein oxidation), lipid oxidation and 3-nitrotyrosine) was “decreased signs of oxidative damage; also recorded: decrease oxidative damage”.

For `CCCCCCCCCCCCCC(=O)O` [Myristic], the Solubility ([1]; water at 20° C.) is given as 0.02 grams of acid per liter.

For `CCCCCCCCCCCCCCCC(=O)O` [Palmitic, palmitic acid], the “amount that will dissolve in water” value [1] is given as 0.007 grams.
